Measurements as given in patent US10829473B2, “Modulators of the cystic fibrosis transmembrane conductance regulator protein and methods of use” (AbbVie Overseas S.Á.R.L., priority 2017, dated 2020).
Like-named read-outs stand apart in the source and are kept apart here. Marks after values point to notes of the source that are not given here.

Biological target: T1, F508delCFTR (Homo sapiens, UniProt P13569, DEL508-508)
T1 construct: expressed in transfected cells; host or cells: CFBE41o- human lung derived epithelial cells (CFBE41o-F508delCFTR-HRP), doxycycline-inducible
Assay: Cell Surface Expression-Horse Radish Peroxidase (CSE-HRP) Assay;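 for EC50 (with co-corrector): co-corrector chromenyl benzoic acid corrector at 2 or 3 µM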;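 for Maximum % activity (without co-corrector): % of on-plate positive control chromenyl benzoic acid corrector at 2 or 3 µM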
Type: cell-based
Settings: for Emax: read-out: Maximum % activity (without co-corrector)
In short: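 Corrector compounds were given as 8-point 3-fold series from 20 or 30 μM, with or without a 2 μM co-corrector, for 18-24 h at 33 °C. Surface HRP was read by luminol luminescence as % of positive control; variable-Hill-slope sigmoidal fitting gave EC50 from triplicate plates.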

[1] = test compound with co-corrector, maximum at any tested concentration
[2] = test compound with co-corrector, read-out: EC50 (with co-corrector)
[3] = test compound without co-corrector, maximum at any tested concentration
[4] = test compound without co-corrector, read-out: EC50 (without co-corrector)
[5] = test compound alone, without co-corrector, read-out: EC50 (without co-corrector)
[6] = with co-corrector, maximum at any tested concentration
[7] = with co-corrector, read-out: EC50 (with co-corrector)
[8] = without co-corrector, maximum at any tested concentration
[9] = test compound without co-corrector

T1 sequence (P13569 with tags, fused parts or gaps DEL508-508): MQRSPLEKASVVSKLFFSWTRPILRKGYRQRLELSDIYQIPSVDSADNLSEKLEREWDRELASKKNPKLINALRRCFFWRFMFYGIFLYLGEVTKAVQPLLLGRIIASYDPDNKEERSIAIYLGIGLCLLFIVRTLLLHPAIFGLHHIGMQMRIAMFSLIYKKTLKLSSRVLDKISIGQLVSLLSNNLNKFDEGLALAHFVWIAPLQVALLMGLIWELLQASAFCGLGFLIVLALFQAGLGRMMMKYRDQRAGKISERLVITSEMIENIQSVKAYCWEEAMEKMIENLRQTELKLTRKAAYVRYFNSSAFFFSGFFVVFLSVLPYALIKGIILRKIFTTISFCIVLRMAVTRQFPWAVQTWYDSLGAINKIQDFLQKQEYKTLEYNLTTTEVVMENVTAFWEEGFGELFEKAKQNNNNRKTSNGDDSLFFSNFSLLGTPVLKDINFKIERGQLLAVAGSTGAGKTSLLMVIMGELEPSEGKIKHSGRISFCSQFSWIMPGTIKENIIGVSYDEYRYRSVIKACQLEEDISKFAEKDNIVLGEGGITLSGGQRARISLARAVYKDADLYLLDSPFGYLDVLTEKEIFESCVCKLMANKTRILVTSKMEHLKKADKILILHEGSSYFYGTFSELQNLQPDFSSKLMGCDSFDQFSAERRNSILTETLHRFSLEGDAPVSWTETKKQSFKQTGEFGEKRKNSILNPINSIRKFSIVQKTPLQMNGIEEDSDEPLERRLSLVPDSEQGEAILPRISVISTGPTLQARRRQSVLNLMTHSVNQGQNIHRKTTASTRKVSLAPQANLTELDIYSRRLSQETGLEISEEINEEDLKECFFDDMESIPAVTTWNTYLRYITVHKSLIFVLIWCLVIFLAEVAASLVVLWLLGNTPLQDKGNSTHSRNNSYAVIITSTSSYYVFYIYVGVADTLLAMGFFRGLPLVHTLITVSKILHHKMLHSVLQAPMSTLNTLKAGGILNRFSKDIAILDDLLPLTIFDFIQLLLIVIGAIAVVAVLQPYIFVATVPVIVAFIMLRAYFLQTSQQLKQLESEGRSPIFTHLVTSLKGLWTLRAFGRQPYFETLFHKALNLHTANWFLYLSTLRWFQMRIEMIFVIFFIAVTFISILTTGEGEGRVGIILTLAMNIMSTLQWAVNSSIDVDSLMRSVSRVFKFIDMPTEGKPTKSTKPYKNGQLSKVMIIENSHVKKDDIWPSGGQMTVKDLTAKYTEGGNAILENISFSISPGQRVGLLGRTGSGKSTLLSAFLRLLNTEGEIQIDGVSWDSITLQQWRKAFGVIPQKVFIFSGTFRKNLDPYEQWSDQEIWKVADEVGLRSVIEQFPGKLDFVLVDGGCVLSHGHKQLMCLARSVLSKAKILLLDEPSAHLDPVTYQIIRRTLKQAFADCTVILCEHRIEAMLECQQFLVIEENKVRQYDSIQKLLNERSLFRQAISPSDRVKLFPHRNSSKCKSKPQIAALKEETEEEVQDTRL

Structure (SMILES)	Maximum % activity (with co-corrector) [1]	EC50 [2]	Emax [3]	EC50 [4]	Emax	EC50 [5]	Maximum % activity (with co-corrector) [6]	EC50 [7]	Emax [8]	EC50 (without co-corrector) [9]	EC50 (with co-corrector) (test compound with co-corrector)
O=C(NS(=O)(=O)c1cccc2c1CCCN2)C1(c2ccc(C(F)(F)F)nc2Cl)CC1 [GIII-28]	++ (≥150 and <350)	> 10 µM	< 50%	> 10 µM							
CCc1ccc(OC(C)C)c(C2(C(=O)NS(=O)(=O)c3cccc4[nH]ccc34)CC2)n1 [Example GI-56, 1-{6-ethyl-3-[(propan-2-yl)oxy]pyridin-2-yl}-N-(1H-indole-4-sulfonyl)cyclopropane-1-carboxamide]	+++ (≥350)	< 3 µM	> 150%	3 to 10 µM							
COC(=O)c1ccc(OC)c(C2(C(=O)NS(=O)(=O)c3cccc4ncccc34)CC2)c1 [II-31]					> 150%	3 to 10 µM	+++ (≥350)	< 3 µM			
CCc1ccncc1C1(C(=O)NS(=O)(=O)c2cccc3ncccc23)CC1 [GIII-6]	+ (<150)	> 10 µM	< 50%	> 10 µM							
COc1cc(C2(C(=O)NS(=O)(=O)c3cccc4ncccc34)CC2)c(C)cn1 [GII-13, 1-(2-methoxy-5-methylpyridin-4-yl)-N-(quinoline-5-sulfonyl)cyclopropane-1-carboxamide]	+++ (≥350)	3 to 10 µM	50 to 150%	3 to 10 µM							
COc1ccc(OC2CCC2)cc1C1(C(=O)NS(=O)(=O)c2cccc3ncccc23)CC1 [Example I-32, 1-[5-(cyclobutyloxy)-2-methoxyphenyl]-N-(quinoline-5-sulfonyl)cyclopropane-1-carboxamide]						< 3 µM	+++ (≥350)	< 3 µM	> 150%		
CC(C)COc1ncc(N(C)C)cc1C1(C(=O)NS(=O)(=O)c2cccc3ncccc23)CC1 [II-112]						< 3 µM	+++ (≥350)	< 3 µM	> 150%		
O=C(NS(=O)(=O)c1ccccc1)C1(c2ccc(Cl)c(Cl)c2)CC1 [Example III-34, N-(benzenesulfonyl)-1-(3,4-dichlorophenyl)cyclopropane-1-carboxamide]						> 10 µM	++ (≥150 and <350)	> 10 µM	< 50%		
CCOc1ncc(C2CCC2)cc1C1(C(=O)NS(=O)(=O)c2cccc3nc(C)ccc23)CC1 [Example GI-115, 1-(5-cyclobutyl-2-ethoxypyridin-3-yl)-N-(2-methylquinoline-5-sulfonyl)cyclopropane-1-carboxamide]	+++ (≥350)	< 3 µM	> 150%	< 3 µM							
CCc1ccc(OC(F)F)c(C2(C(=O)NS(=O)(=O)c3cccc4ncccc34)CC2)c1 [II-98]						< 3 µM	+++ (≥350)	< 3 µM	> 150%		
COc1cc(C2(C(=O)NS(=O)(=O)c3cccc4ncccc34)CC2)c(OCC2CC2)cn1 [Example GI-91, 1-[5-(cyclopropylmethoxy)-2-methoxypyridin-4-yl]-N-(quinoline-5-sulfonyl)cyclopropane-1-carboxamide]	+++ (≥350)	< 3 µM	> 150%	3 to 10 µM							
COc1ccc(C2(C(=O)NS(=O)(=O)c3cccc4ccccc34)CC2)c(C)n1 [GII-19, 1-(6-methoxy-2-methylpyridin-3-yl)-N-(naphthalene-1-sulfonyl)cyclopropane-1-carboxamide]	+++ (≥350)	3 to 10 µM	50 to 150%							++^a	
CO[C@H](C)COc1ccc(C)cc1C1(C(=O)NS(=O)(=O)c2cccc3nc(C)ccc23)CC1 [Example I-116, 1-{2-[(2R)-2-methoxypropoxy]-5-methylphenyl}-N-(2-methylquinoline-5-sulfonyl)cyclopropane-1-carboxamide]						< 3 µM	+++ (≥350)	< 3 µM	> 150%		
COc1ccc(C(C)(C)C)cc1C1(C(=O)NS(=O)(=O)c2cccc3ncccc23)CC1 [Example I-34, 1-(5-tert-butyl-2-methoxyphenyl)-N-(quinoline-5-sulfonyl)cyclopropane-1-carboxamide]						< 3 µM	+++ (≥350)	< 3 µM	> 150%		
Cc1ccc2c(S(=O)(=O)NC(=O)C3(c4cc(C(F)(F)F)cnc4N(C)C)CC3)cccc2n1 [Example I-72, 1-[2-(dimethylamino)-5-(trifluoromethyl)pyridin-3-yl]-N-(2-methylquinoline-5-sulfonyl)cyclopropane-1-carboxamide]						3 to 10 µM	+++ (≥350)	< 3 µM	> 150%		
O=C(NS(=O)(=O)c1cccc2ncccc12)C1(c2cc(C3CC3)cnc2C(F)(F)F)CC1 [GIII-10]	++ (≥150 and <350)		50 to 150%							++^a	++^a
CCOc1ccc(C(C)(C)OC)cc1C1(C(=O)NS(=O)(=O)c2cccc3ncccc23)CC1 [II-97]						< 3 µM	+++ (≥350)	< 3 µM	> 150%		
CCOc1ccc(C(C)(C)COC)cc1C1(C(=O)NS(=O)(=O)c2cccc3ncccc23)CC1 [Example I-101, 1-[2-ethoxy-5-(1-methoxy-2-methylpropan-2-yl)phenyl]-N-(quinoline-5-sulfonyl)cyclopropane-1-carboxamide]						< 3 µM	+++ (≥350)	< 3 µM	> 150%		
COc1cccc(-c2cnn(C)c2)c1C1(C(=O)NS(=O)(=O)c2cccc3ncccc23)CC1 [Example III-122, 1-[2-methoxy-6-(1-methyl-1H-pyrazol-4-yl)phenyl]-N-(quinoline-5-sulfonyl)cyclopropane-1-carboxamide]						3 to 10 µM	+++ (≥350)	3 to 10 µM	> 150%		
Cc1ccc2c(S(=O)(=O)NC(=O)C3(c4cc(C5CC5)cnc4OCC(C)C)CC3)cccc2n1 [Example GI-49, 1-[5-cyclopropyl-2-(2-methylpropoxy)pyridin-3-yl]-N-(2-methylquinoline-5-sulfonyl)cyclopropane-1-carboxamide]	+++ (≥350)	< 3 µM	> 150%	< 3 µM							
CC(C)Oc1ncc(N2CCCC2)cc1C1(C(=O)NS(=O)(=O)c2cccc3[nH]ccc23)CC1 [Example GI-64, N-(1H-indole-4-sulfonyl)-1-{2-[(propan-2-yl)oxy]-5-(pyrrolidin-1-yl)pyridin-3-yl}cyclopropane-1-carboxamide]	+++ (≥350)	< 3 µM	> 150%	< 3 µM							
COc1cc(C2CCC2)cc(OC)c1C1(C(=O)NS(=O)(=O)c2cccc3ncn(C)c23)CC1 [Example III-123, 1-(4-cyclobutyl-2,6-dimethoxyphenyl)-N-(1-methyl-1H-benzimidazole-7-sulfonyl)cyclopropane-1-carboxamide]						3 to 10 µM	+++ (≥350)	< 3 µM	> 150%		
COc1ccc(C#N)cc1C1(C(=O)NS(=O)(=O)c2cccc3ncccc23)CC1 [Example III-99, 1-(5-cyano-2-methoxyphenyl)-N-(quinoline-5-sulfonyl)cyclopropane-1-carboxamide]						3 to 10 µM	+++ (≥350)	3 to 10 µM	50 to 150%		
CCc1cnc(OC(C)C)c(C2(C(=O)NS(=O)(=O)c3cccc4c3CCCN4)CC2)c1 [Example GI-14, 1-{5-ethyl-2-[(propan-2-yl)oxy]pyridin-3-yl}-N-(1,2,3,4-tetrahydroquinoline-5-sulfonyl)cyclopropane-1-carboxamide]						3 to 10 µM	+++ (≥350)	< 3 µM	> 150%		
O=C(NS(=O)(=O)c1cccc2ncccc12)C1(c2cccc(Br)c2)CC1 [Example III-93, 1-(3-bromophenyl)-N-(quinoline-5-sulfonyl)cyclopropane-1-carboxamide]						3 to 10 µM	+++ (≥350)	3 to 10 µM	> 150%		
COc1ccc(C(OC)C(F)(F)F)cc1C1(C(=O)NS(=O)(=O)c2cccc3ncccc23)CC1 (stereo not shown) [II-86]						3 to 10 µM	+++ (≥350)	< 3 µM	> 150%		
COc1ccc(OC(C)C)cc1C1(C(=O)NS(=O)(=O)c2cccc3ncccc23)CC1 [Example I-14, 1-{2-methoxy-5-[(propan-2-yl)oxy]phenyl}-N-(quinoline-5-sulfonyl)cyclopropane-1-carboxamide]						< 3 µM	+++ (≥350)	< 3 µM	> 150%		
Cc1ccc(S(=O)(=O)NC(=O)C2(c3cccc(Cl)c3)CC2)nc1 [Example III-84, 1-(3-chlorophenyl)-N-(5-methylpyridine-2-sulfonyl)cyclopropane-1-carboxamide]						> 10 µM	+ (<150)	> 10 µM	< 50%		
